Data: US10815230B2, “Casein kinase 1 delta inhibitor” (ELECTROPHORETICS LIMITED, priority 2015, dated 2020)
Like-named read-outs stand apart in the source and are kept apart here.

Legend:
[1] = target: AURKC (Homo sapiens, UniProt Q9UQB9); assay: KINOMEscan binding assay; details: read-out: % Ctrl @ 10000 nM
[2] = target: FLT3 (N841I) (Homo sapiens, UniProt P36888, N841I); assay: KINOMEscan binding assay; details: read-out: % Ctrl @ 10000 nM
[3] = target: CDKL5 (Homo sapiens, UniProt O76039); assay: KINOMEscan binding assay; details: read-out: % Ctrl @ 10000 nM
[4] = target: ABL1 (T315I) phosphorylated (Homo sapiens, UniProt P00519, T315I); assay: KINOMEscan binding assay; details: read-out: % Ctrl @ 10000 nM
[5] = target: TAOK3 (Homo sapiens, UniProt Q9H2K8); assay: KINOMEscan binding assay; details: read-out: % Ctrl @ 10000 nM
[6] = target: MRCKB (Homo sapiens, UniProt Q9Y5S2); assay: KINOMEscan binding assay; details: read-out: % Ctrl @ 10000 nM
[7] = target: RET (Homo sapiens, UniProt P07949); assay: KINOMEscan binding assay; details: read-out: % Ctrl @ 10000 nM
[8] = target: RSK1 Kin.Dom.2-C-terminal (Homo sapiens, UniProt Q15418); assay: KINOMEscan binding assay; details: read-out: % Ctrl @ 10000 nM
[9] = target: ABL1 (F317L) phosphorylated (Homo sapiens, UniProt P00519, F317L); assay: KINOMEscan binding assay; details: read-out: % Ctrl @ 10000 nM
[10] = target: MARK4 (Homo sapiens, UniProt Q96L34); assay: KINOMEscan binding assay; details: read-out: % Ctrl @ 10000 nM
[11] = target: ACVR2B (Homo sapiens, UniProt Q13705); assay: KINOMEscan binding assay; details: read-out: % Ctrl @ 10000 nM
[12] = target: JNK2 (Homo sapiens, UniProt P45984); assay: KINOMEscan binding assay; details: read-out: % Ctrl @ 10000 nM
[13] = target: HIPK4 (Homo sapiens, UniProt Q8NE63); assay: KINOMEscan binding assay; details: read-out: % Ctrl @ 10000 nM
[14] = target: DDR1 (Homo sapiens, UniProt Q08345); assay: KINOMEscan binding assay; details: read-out: % Ctrl @ 10000 nM
Chain of DDR1 (Q08345 19-913): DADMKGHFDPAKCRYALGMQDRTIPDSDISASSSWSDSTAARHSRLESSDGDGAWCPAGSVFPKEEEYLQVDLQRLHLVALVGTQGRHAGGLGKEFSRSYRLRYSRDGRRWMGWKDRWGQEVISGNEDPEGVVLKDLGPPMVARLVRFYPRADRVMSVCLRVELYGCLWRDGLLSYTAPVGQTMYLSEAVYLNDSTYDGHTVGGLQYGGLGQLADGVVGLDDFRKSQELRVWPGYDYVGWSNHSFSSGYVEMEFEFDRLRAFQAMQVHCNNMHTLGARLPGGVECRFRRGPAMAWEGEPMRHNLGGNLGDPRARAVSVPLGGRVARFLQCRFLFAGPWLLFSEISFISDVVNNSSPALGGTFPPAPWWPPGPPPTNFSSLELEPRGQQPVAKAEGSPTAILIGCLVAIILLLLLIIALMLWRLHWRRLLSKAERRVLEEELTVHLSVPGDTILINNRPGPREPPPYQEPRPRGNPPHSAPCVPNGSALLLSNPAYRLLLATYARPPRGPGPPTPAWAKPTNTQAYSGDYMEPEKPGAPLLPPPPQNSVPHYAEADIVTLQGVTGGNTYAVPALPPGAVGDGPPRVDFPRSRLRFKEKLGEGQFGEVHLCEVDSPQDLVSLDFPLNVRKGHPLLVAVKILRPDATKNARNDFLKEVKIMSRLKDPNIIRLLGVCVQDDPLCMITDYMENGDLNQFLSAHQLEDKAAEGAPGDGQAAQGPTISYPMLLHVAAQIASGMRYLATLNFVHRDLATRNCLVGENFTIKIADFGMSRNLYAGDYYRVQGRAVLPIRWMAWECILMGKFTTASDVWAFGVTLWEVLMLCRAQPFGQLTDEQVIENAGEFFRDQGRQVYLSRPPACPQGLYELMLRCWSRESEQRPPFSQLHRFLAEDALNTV

[15] = target: CDK3 (Homo sapiens, UniProt Q00526); assay: KINOMEscan binding assay; details: read-out: % Ctrl @ 10000 nM
[16] = target: TIE1 (Homo sapiens, UniProt P35590); assay: KINOMEscan binding assay; details: read-out: % Ctrl @ 10000 nM
Chain of TIE1 (P35590 22-1138): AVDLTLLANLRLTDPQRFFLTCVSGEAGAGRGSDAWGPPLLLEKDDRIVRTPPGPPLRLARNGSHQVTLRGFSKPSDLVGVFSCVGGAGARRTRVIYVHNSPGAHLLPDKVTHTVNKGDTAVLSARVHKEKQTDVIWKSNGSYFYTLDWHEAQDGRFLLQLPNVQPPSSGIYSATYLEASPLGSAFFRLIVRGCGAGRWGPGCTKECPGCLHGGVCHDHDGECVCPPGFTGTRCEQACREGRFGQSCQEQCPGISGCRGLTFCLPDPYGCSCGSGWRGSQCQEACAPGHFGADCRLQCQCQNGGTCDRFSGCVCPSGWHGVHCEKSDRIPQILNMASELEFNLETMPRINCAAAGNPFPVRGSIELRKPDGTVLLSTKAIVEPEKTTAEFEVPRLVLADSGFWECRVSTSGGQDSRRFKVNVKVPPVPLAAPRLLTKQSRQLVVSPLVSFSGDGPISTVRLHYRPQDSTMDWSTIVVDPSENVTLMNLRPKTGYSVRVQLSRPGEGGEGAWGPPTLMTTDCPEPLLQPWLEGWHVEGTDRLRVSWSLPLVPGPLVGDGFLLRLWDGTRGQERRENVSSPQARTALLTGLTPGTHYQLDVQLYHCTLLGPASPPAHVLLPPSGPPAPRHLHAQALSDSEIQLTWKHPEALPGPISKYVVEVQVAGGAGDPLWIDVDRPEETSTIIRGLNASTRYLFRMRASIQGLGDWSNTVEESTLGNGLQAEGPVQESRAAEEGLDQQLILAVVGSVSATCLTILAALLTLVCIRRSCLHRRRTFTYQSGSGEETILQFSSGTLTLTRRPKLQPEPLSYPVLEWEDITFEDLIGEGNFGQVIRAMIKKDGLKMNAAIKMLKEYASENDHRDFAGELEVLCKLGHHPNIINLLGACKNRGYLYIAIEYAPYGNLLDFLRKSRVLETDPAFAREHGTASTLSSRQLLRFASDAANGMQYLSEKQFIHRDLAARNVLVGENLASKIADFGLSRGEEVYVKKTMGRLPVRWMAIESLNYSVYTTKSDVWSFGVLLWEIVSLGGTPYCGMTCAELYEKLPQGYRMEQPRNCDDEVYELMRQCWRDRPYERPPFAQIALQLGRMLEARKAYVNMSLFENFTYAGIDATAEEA

[17] = target: MTOR (Homo sapiens, UniProt P42345); assay: KINOMEscan binding assay; details: read-out: % Ctrl @ 10000 nM
[18] = target: BTK (Homo sapiens, UniProt Q06187); assay: KINOMEscan binding assay; details: read-out: % Ctrl @ 10000 nM
[19] = target: HUNK (Homo sapiens, UniProt P57058); assay: KINOMEscan binding assay; details: read-out: % Ctrl @ 10000 nM
[20] = target: PLK3 (Homo sapiens, UniProt Q9H4B4); assay: KINOMEscan binding assay; details: read-out: % Ctrl @ 10000 nM
[21] = target: EGFR (T790M) (Homo sapiens, UniProt P00533, T790M); assay: KINOMEscan binding assay; details: read-out: % Ctrl @ 10000 nM
Chain of EGFR (T790M) (P00533 25-1210 T790M): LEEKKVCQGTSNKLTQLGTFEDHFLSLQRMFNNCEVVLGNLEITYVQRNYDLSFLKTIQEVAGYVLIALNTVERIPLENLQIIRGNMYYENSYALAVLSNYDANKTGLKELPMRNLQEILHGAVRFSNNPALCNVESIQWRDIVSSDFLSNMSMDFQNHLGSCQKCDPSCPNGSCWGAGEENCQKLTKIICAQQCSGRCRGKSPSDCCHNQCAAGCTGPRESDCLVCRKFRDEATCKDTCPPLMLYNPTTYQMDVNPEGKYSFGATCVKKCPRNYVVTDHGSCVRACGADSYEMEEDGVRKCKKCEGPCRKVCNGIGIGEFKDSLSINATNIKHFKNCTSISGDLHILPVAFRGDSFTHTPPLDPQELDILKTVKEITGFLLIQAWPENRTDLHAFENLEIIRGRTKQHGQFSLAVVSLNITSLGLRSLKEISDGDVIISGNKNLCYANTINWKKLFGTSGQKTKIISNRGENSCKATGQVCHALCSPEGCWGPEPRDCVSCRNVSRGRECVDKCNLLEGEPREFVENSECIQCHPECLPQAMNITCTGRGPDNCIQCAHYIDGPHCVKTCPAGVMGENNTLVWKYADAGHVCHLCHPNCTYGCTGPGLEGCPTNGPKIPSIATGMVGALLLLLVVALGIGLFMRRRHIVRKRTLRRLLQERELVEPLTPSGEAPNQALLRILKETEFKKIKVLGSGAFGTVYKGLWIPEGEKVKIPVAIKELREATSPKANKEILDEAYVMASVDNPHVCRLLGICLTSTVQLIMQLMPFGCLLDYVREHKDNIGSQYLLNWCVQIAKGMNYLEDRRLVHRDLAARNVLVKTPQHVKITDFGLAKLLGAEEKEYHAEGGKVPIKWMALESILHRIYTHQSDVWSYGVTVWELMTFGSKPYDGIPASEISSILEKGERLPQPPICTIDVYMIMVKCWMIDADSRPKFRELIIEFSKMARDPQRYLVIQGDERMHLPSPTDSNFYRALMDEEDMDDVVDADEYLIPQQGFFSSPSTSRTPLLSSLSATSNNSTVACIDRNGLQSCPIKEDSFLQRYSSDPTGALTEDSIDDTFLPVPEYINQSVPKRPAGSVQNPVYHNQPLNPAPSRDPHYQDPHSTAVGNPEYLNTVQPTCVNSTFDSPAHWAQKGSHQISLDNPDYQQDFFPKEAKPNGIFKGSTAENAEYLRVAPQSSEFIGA

[22] = target: EPHA5 (Homo sapiens, UniProt P54756); assay: KINOMEscan binding assay; details: read-out: % Ctrl @ 10000 nM
[23] = target: T1, LKB1 (Homo sapiens, UniProt Q15831); assay: KINOMEscan binding assay; details: read-out: % Ctrl @ 10000 nM
T1 construct: T7 phage fusion (most assays) or DNA label after HEK293 expression; purchased DiscoveRx (KINOMEscan, LeadHunter Discovery services); host or cells: T7 phage in E. coli (BL21-derived) or HEK293

[24] = target: BLK (Homo sapiens, UniProt P51451); assay: KINOMEscan binding assay; details: read-out: % Ctrl @ 10000 nM
[25] = target: FLT3 (K663Q) (Homo sapiens, UniProt P36888, K663Q); assay: KINOMEscan binding assay; details: read-out: % Ctrl @ 10000 nM
[26] = target: DMPK2 (Homo sapiens, UniProt Q6DT37); assay: KINOMEscan binding assay; details: read-out: % Ctrl @ 10000 nM
Chain of DMPK2 (Q6DT37 whole entry): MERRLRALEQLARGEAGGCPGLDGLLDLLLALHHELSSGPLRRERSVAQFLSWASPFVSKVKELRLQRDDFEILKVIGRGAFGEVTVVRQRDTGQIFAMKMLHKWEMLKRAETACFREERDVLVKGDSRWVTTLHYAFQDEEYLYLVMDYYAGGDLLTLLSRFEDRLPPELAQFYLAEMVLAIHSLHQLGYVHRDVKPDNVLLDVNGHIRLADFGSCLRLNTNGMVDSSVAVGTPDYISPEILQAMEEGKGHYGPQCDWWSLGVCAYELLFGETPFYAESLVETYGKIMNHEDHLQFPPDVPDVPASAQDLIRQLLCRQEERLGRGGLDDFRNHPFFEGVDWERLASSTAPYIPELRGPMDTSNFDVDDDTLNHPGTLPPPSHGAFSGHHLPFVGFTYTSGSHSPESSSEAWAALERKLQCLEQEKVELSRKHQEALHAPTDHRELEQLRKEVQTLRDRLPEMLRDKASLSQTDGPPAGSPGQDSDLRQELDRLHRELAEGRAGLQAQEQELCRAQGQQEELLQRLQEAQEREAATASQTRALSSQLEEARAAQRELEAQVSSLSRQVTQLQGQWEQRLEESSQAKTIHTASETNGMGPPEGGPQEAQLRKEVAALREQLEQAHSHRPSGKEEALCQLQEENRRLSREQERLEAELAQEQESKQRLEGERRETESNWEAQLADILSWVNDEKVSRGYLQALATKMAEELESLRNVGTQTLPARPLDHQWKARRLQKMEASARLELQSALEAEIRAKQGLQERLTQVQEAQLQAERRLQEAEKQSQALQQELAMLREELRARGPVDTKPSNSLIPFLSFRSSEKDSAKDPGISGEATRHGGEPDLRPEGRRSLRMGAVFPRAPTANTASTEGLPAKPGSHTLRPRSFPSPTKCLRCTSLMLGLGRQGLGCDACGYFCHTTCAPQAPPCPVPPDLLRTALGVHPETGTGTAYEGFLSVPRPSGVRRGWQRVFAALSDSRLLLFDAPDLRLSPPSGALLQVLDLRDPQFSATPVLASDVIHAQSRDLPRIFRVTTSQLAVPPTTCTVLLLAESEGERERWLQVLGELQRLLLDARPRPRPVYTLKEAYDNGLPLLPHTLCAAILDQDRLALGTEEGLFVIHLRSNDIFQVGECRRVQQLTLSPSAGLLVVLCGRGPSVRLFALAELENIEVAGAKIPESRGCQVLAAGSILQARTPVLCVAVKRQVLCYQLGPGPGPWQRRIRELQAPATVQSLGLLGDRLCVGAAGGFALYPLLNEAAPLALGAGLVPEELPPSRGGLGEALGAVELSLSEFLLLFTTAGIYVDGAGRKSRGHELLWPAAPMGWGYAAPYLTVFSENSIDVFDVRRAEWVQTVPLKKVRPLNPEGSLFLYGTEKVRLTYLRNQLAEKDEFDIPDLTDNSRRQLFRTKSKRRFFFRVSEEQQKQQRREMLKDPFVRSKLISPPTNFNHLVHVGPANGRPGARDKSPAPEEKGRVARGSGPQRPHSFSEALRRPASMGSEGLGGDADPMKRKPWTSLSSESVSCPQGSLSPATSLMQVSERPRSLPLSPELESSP

[27] = Pharmacokinetics in male CD-1 mice; format: in vivo; details: for AUCex: percent of AUC0-inf that is extrapolated; for AUC(0-t): male, CD-1, mouse; for AUC(0-t) / bioavailability / Cmax / Tmax / half-life / AUC(0-inf) / clearance / Vd / CL/F / Vd/F: plasma; for bioavailability / Cmax / Tmax / half-life / AUC(0-inf) / clearance / Vd / CL/F / Vd/F: mouse; for bioavailability: read-out: F (oral bioavailability); for AUC(0-inf) / clearance / Vd / CL/F / Vd/F: predicted; for Vd: read-out: Vz; for Vd/F: read-out: Vz/F
Procedure: Six groups of male CD-1 mice of approximately 25-35 g (about 8 weeks of age) were dosed with Comparative compound 324 and Compound A intravenously (IV) (in 10% DMSO:90% Hydroxypropyl-β-cyclodextrin (20% aq. w/v)) or orally (PO) (in 0.5% w/v methylcelluose (aq.) according to the regimen shown in Table 6.
Intravenous doses was administered into a tail vein at a constant dose volume of 5 mL/kg to achieve a dose level of 3 mg/kg. Oral doses were administered as a single bolus dose via syringe with attached polypropylene gavage tube at a constant dose volume of 10 mL/kg to achieve dose levels of 3 mg/kg (groups 2 and 4) and 30 mg/kg (group 3 and 6).
Following dosing, blood samples were collected into individual K3EDTA tubes by cardiac puncture under terminal anaesthesia (isoflurane) from 3 animals per timepoint. Following collection animal were sacrificed by cervical dislocation. Samples were taken at 5, 15 and 30 minutes and then 1, 2, 4, 8 and 24 hours post-IV dose and 15 and 30 minutes and then 1, 2, 4, 8 and 24 hours post-OP dose.
Upon collection, blood samples were centrifuged at 10,000×g, 2 minutes at 4° C. and the resultant plasma was drawn off and stored at −20° C. for analysis by LC-MS/MS of the concentration of the compounds. The remaining blood call pellet was discarded.
Pharmacokinetic parameters were derived by non-compartmental analysis (linear/logarithmic trapezoidal) using WinNonlin (Version 4.1 or higher) software.

[28] = target: CASK (Homo sapiens, UniProt O14936); assay: KINOMEscan binding assay; details: read-out: % Ctrl @ 10000 nM
[29] = iv, 3 mg/kg, IV 3 mg/kg, male CD-1 mice, read-out: AUC0-24 h
[30] = iv, 3 mg/kg, IV 3 mg/kg, male CD-1 mice, read-out: AUC0-t
[31] = po, 3 mg/kg, PO 3 mg/kg, male CD-1 mice, read-out: AUC0-24 h
[32] = po, 3 mg/kg, PO 3 mg/kg, male CD-1 mice, read-out: AUC0-t
[33] = po, 30 mg/kg, PO 30 mg/kg, male CD-1 mice, read-out: AUC0-24 h
[34] = po, 30 mg/kg, PO 30 mg/kg, male CD-1 mice, read-out: AUC0-t

Chain of AURKC (Q9UQB9 whole entry): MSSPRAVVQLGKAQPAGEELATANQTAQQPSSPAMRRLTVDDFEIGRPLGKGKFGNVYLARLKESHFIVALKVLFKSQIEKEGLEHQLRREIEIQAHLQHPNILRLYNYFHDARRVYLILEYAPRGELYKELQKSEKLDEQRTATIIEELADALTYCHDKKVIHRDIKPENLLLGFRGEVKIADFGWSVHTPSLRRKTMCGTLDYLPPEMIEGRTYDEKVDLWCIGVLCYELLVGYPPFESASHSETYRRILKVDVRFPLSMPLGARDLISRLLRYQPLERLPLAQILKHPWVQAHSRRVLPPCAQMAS

`Nc1ncc(-c2nc3ccccc3o2)c(-c2ccncc2)n1` [Comparative Compound 324, 5-(1,3-benzoxazol-2-yl)-4-(pyridine-4-yl)pyrimidin-2-amine] gave a remaining binding at 10 µM [1] of 100%, a remaining binding at 10 µM [2] of 83% and a remaining binding at 10 µM [3] of 97%. For the same compound, the remaining binding at 10 µM [4] was 85%, the remaining binding at 10 µM [5] was 91% and the remaining binding at 10 µM [6] was 100%. For the same compound, the remaining binding at 10 µM [7] was 94%, the remaining binding at 10 µM [8] was 44% and the remaining binding at 10 µM [9] was 75%. It also gave a remaining binding at 10 µM [10] of 100%, a remaining binding at 10 µM [11] of 100% and a remaining binding at 10 µM [12] of 18%. It also gave a remaining binding at 10 µM [13] of 100%, a remaining binding at 10 µM [14] of 94% and a remaining binding at 10 µM [15] of 98%. The remaining binding at 10 µM [16] was 100%, the remaining binding at 10 µM [17] was 71% and the remaining binding at 10 µM [18] was 92%. It also gave a remaining binding at 10 µM [19] of 96%, a remaining binding at 10 µM [20] of 99% and a remaining binding at 10 µM [21] of 88%. For the same compound, the remaining binding at 10 µM [22] was 100%, the remaining binding at 10 µM [23] was 85% and the remaining binding at 10 µM [24] was 80%. For the same compound, the remaining binding at 10 µM [25] was 100%, the remaining binding at 10 µM [26] was 82% and the AUCex ([27]; IV 3 mg/kg) was 1.9%. For the same compound, the AUC(0-t) [27, 29] was 315 ng·h/mL, the AUC(0-t) [27, 30] was 304 ng·h/mL and the AUC(0-t) [27, 31] was 11.1 ng·h/mL. The AUC(0-t) [27, 32] was 8.66 ng·h/mL, the AUC(0-t) [27, 33] was 1590 ng·h/mL and the AUC(0-t) [27, 34] was 1210 ng·h/mL. The bioavailability ([27]; PO 3 mg/kg, male CD-1 mice) was 3%, the bioavailability ([27]; PO 30 mg/kg, male CD-1 mice) was 40% and the Cmax ([27]; IV 3 mg/kg, male CD-1 mice) was 1150 ng/mL. It also gave a Tmax ([27]; IV 3 mg/kg, male CD-1 mice) of 4.98 min, a half-life ([27]; IV 3 mg/kg, male CD-1 mice) of 5.46 min and an AUC(0-inf) ([27]; IV 3 mg/kg, male CD-1 mice) of 309 ng·h/mL. The clearance ([27]; IV 3 mg/kg, male CD-1 mice) was 162 mL/min/kg, the Vd ([27]; IV 3 mg/kg, male CD-1 mice) was 1.27 L/kg and the Cmax ([27]; PO 3 mg/kg, male CD-1 mice) was 14 ng/mL. The Tmax ([27]; PO 3 mg/kg, male CD-1 mice) was 15 min, the Cmax ([27]; PO 30 mg/kg, male CD-1 mice) was 666 ng/mL and the Tmax ([27]; PO 30 mg/kg, male CD-1 mice) was 30 min. It also gave a remaining binding at 10 µM [28] of 78%.

`CNc1c(C(N)=O)c2ccccn2c1C(=O)c1ccc(F)cc1` [Compound A, 2-methyl-amino-3-[(4-fluorophenyl)carbonyl]indolizine-1-carboxamide] gave a remaining binding at 10 µM [1] of 100%, a remaining binding at 10 µM [2] of 87% and a remaining binding at 10 µM [3] of 94%. It also gave a remaining binding at 10 µM [4] of 100%, a remaining binding at 10 µM [5] of 93% and a remaining binding at 10 µM [6] of 100%. For the same compound, the remaining binding at 10 µM [7] was 80%, the remaining binding at 10 µM [8] was 23% and the remaining binding at 10 µM [9] was 46%. The remaining binding at 10 µM [10] was 100%, the remaining binding at 10 µM [11] was 100% and the remaining binding at 10 µM [12] was 45%. It also gave a remaining binding at 10 µM [13] of 83%, a remaining binding at 10 µM [14] of 2.6% and a remaining binding at 10 µM [15] of 92%. It also gave a remaining binding at 10 µM [16] of 95%, a remaining binding at 10 µM [17] of 96% and a remaining binding at 10 µM [18] of 88%. It also gave a remaining binding at 10 µM [19] of 79%, a remaining binding at 10 µM [20] of 85% and a remaining binding at 10 µM [21] of 65%. The remaining binding at 10 µM [22] was 70%, the remaining binding at 10 µM [23] was 85% and the remaining binding at 10 µM [24] was 49%. For the same compound, the remaining binding at 10 µM [25] was 99%, the remaining binding at 10 µM [26] was 65% and the AUCex ([27]; IV 3 mg/kg) was 0.1%. The AUCex ([27]; PO 3 mg/kg) was 6.3%, the AUCex ([27]; PO 30 mg/kg) was 18.5% and the “clearance after administration” value ([27]; male CD-1 mice, 24 hours after administration) was “completely cleared after 24 hours”. The AUC(0-t) [27, 29] was 502 ng·h/mL, the AUC(0-t) [27, 30] was 498 ng·h/mL and the AUC(0-t) [27, 31] was 35.4 ng·h/mL. It also gave an AUC(0-t) [27, 32] of 32.4 ng·h/mL, an AUC(0-t) [27, 33] of 659 ng·h/mL and an AUC(0-t) [27, 34] of 470 ng·h/mL. It also gave a bioavailability ([27]; PO 3 mg/kg, male CD-1 mice) of 7%, a bioavailability ([27]; PO 30 mg/kg, male CD-1 mice) of 9% and a Cmax ([27]; IV 3 mg/kg, male CD-1 mice) of 1680 ng/mL. The Tmax ([27]; IV 3 mg/kg, male CD-1 mice) was 4.98 min, the half-life ([27]; IV 3 mg/kg, male CD-1 mice) was 13.8 min and the AUC(0-inf) ([27]; IV 3 mg/kg, male CD-1 mice) was 499 ng·h/mL. It also gave a clearance ([27]; IV 3 mg/kg, male CD-1 mice) of 100 mL/min/kg, a Vd ([27]; IV 3 mg/kg, male CD-1 mice) of 2 L/kg and a Cmax ([27]; PO 3 mg/kg, male CD-1 mice) of 47 ng/mL. It also gave a Tmax ([27]; PO 3 mg/kg, male CD-1 mice) of 15 min, a half-life ([27]; PO 3 mg/kg, male CD-1 mice) of 29.4 min and an AUC(0-inf) ([27]; PO 3 mg/kg, male CD-1 mice) of 34.6 ng·h/mL. For the same compound, the CL/F ([27]; PO 3 mg/kg, male CD-1 mice) was 1450 mL/min/kg, the Vd/F ([27]; PO 3 mg/kg, male CD-1 mice) was 61.4 L/kg and the Cmax ([27]; PO 30 mg/kg, male CD-1 mice) was 237 ng/mL. For the same compound, the Tmax ([27]; PO 30 mg/kg, male CD-1 mice) was 30 min, the half-life ([27]; PO 30 mg/kg, male CD-1 mice) was 210 min and the AUC(0-inf) ([27]; PO 30 mg/kg, male CD-1 mice) was 576 ng·h/mL. The CL/F ([27]; PO 30 mg/kg, male CD-1 mice) was 868 mL/min/kg, the Vd/F ([27]; PO 30 mg/kg, male CD-1 mice) was 264 L/kg and the remaining binding at 10 µM [28] was 77%.
